From patent US6455577B2, “Flavanone derivatives and composition for preventing or treating blood lipid level-related diseases comprising same” (Korea Research Institute of Bioscience and Biotechnology, priority 2000, dated 2002) come the findings set out here.

In series [1] the test system is ACAT. Nature of the series: ACAT activity in fed rabbits. Type of series: in vivo, rabbit. To be noted: rabbits fed 1% cholesterol plus 1 mg/kg Lovastatin or 0.1% NG5006, 8 weeks. As for the experimental part: 22 three-month-old New Zealand White rabbits(Yeonam Horticulture and Animal Husbandry College, Korea) each weighing about 2.0 to 2.3 kg were bred under a condition of temperature 20±2° C., relative humidity 55±10%, and photoperiod 12L/12D. The rabbits were divided two groups of 6 rabbits and a group of 10 rabbits, and the rats of three groups were fed with three different diets, i.e., RC4 diet(Oriental Yeast Co., Japan) containing 1% cholesterol(Control group); 1% cholesterol plus 1 mg/kg Lovastatin® (Merck, U.S.A.)(Comparative group); and 1% cholesterol plus 0.1% NG5006, respectively. RC4 diet comprises 7.6% moisture, 22.8% crude protein, 2.8% crude fat, 8.8% crude ash, 14.4% crude cellulose and 43.6% soluble nitrogen-free substances. The rabbits were bred for 8 weeks while being allowed free access to the diets and water.
The effect of feeding NG5006 to rabbits on the activities of ACAT was determined using the rabbits bred in Step 1 of Example 14 in accordance with procedure disclosed in step 1 of Example 13.

The subject of series [2] is ICR mice. Nature of the series: Toxicity of orally administered NG5006 in mice. The settings on record: single oral dose 1, 2 and 4 g/kg. Type of series: in vivo, mouse. As for the experimental part: 4 week-old, specific pathogen-free ICR female mice(12 heads) and male mice(12 heads) were bred under a condition of temperature 22±3° C., moisture 55±10% and photoperiod 12L/12D. Fodder(Cheiljedang Co., mouse and rat fodder) and water were sterilized and fed to the mice.
NG5006 was dissolved in 0.5% Tween 80 to a concentration of 100 mg/ml. The solution thus obtained was orally administered to the mice in amounts of 0.2 ml(1 g/kg), 0.4 ml(2 g/kg) and 0.8 ml(4g/kg) per 20 g of mouse body weight, respectively. […] The weight changes of the mice were recorded every day to examine the effect of NG5006. Further, on the 7th day, the mice were sacrificed and the internal organs were visually examined.

SMILES strings stand for the structures.

Turning to `CCCCCCCCCCCCCCCCOc1cc(O)c2c(c1)OC(c1ccc(O)cc1)CC2=O` (stereo not drawn) [NG5006, Naringenin 7-O-cetyl Ether], the ACAT activity in series [1] is listed as 215.2 ± 30.3 pmole/min/mg protein. Moreover, in series [1] (versus control group), the “% Inhibition on ACAT Activity” value was 16.2%. The weight change result in series [2] (7 day test period) is given as “no weight loss”. In addition, in series [2] (observed 7 days), the survival result was “All the mice were alive at day 7” and the toxicity entry is “no toxicity”. Further, the “autopsy, pathological abnormality” value in series [2] (sacrificed on the 7th day) is recorded as “did not develop any pathological abnormality”.
